Reference: ChEMBL document CHEMBL1148320, “Characterization of a ligand-receptor binding event using receptor-dependent four-dimensional quantitative structure-activity relationship analysis” (J Med Chem, 2004)

Molecular target: glycogen phosphorylase b, muscle (Oryctolagus cuniculus) (UniProt P00489)
Sequence (P00489 whole entry, looked up): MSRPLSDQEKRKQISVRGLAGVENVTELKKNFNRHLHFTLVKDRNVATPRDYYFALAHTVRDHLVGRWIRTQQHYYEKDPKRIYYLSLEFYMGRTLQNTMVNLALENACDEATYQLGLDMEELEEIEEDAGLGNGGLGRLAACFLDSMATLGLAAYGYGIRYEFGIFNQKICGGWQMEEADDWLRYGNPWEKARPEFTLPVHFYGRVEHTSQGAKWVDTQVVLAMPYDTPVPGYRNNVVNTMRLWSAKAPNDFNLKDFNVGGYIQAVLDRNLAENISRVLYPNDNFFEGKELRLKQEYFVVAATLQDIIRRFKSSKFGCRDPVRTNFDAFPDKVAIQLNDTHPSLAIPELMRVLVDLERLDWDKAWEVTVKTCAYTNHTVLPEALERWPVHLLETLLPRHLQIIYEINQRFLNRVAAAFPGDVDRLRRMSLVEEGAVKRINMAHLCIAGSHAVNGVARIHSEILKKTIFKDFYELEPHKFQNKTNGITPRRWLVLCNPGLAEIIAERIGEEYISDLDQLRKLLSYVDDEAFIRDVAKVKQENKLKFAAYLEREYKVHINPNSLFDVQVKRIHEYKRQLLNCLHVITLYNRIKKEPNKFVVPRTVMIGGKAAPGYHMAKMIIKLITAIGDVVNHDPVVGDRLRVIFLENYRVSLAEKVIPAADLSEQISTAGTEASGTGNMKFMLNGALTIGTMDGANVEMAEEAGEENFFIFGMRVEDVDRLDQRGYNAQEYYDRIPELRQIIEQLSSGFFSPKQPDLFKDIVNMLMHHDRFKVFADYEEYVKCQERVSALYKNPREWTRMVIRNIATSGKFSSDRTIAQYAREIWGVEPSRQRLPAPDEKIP

| SMILES | Ki |
| --- | --- |
| OC[C@H]1S[C@H](O)[C@H](O)[C@@H](O)[C@@H]1O | 2000 µM |
| OC[C@H]1O[C@@](O)(CO)[C@H](O)[C@@H](O)[C@@H]1O | 15800 µM |
| O=C(CCl)NC1O[C@H](CO)[C@@H](O)[C@H](O)[C@H]1O (single isomer, unassigned) | 45 µM |
| NC(=O)CSC1O[C@H](CO)[C@@H](O)[C@H](O)[C@H]1O (single isomer, unassigned) | 21100 µM |
| O=C(CSC1O[C@H](CO)[C@@H](O)[C@H](O)[C@H]1O)Nc1ccc(F)cc1F (single isomer, unassigned) | 18900 µM |
| O=C(CSC1O[C@H](CO)[C@@H](O)[C@H](O)[C@H]1O)Nc1ccccc1 (single isomer, unassigned) | 3600 µM |
| CNNC(=O)C1O[C@H](CO)[C@@H](O)[C@H](O)[C@H]1O (single isomer, unassigned) | 1800 µM |
| NC(=O)NC1O[C@H](CO)[C@@H](O)[C@H](O)[C@H]1O (single isomer, unassigned) | 140 µM |
| CCCC(=O)NC1O[C@H](CO)[C@@H](O)[C@H](O)[C@H]1O (single isomer, unassigned) | 94 µM |
| CC(=O)NCC(=O)NC1O[C@H](CO)[C@@H](O)[C@H](O)[C@H]1O (single isomer, unassigned) | 990 µM |
| CCC(=O)NC1O[C@H](CO)[C@@H](O)[C@H](O)[C@H]1O (single isomer, unassigned) | 39 µM |
